Results as given in PubChem BioAssay (NCI).
Values joined by “and” are separate entries in the source; they are usually repeats but may differ in a detail not shown here. Identical values can stand only once.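 Interpolation was linear, between the two tested concentrations surrounding the appropriate level; five concentrations were tested over 48 hours in 96-well plates. At the GI50, growth is halved. Definition used: TGI = concentration required for complete inhibition of growth.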

Assays:
Experiment in all cases: inhibition of tumour cell growth, NCI panel, 48 h
[1] = system: UO-31 renal
[2] = system: UACC-62 melanoma
[3] = system: MALME-3M melanoma
[4] = system: SK-MEL-28 melanoma
[5] = system: MDA-MB-435
[6] = system: OVCAR-8 ovarian
[7] = system: NCI/ADR-RES ovarian
[8] = system: M14 melanoma

## COC1=C(OC)C(=O)C(CCCCCCCCCCO)=C(C)C1=O
[1]
  GI50: 12.7 µM
  TGI: 26.6 µM
[2]
  GI50: 7.57 µM
  TGI: 21.4 µM
[3]
  GI50: 7.47 µM
  TGI: 21.8 µM
[4]
  GI50: 13.5 µM
  TGI: 26.5 µM
[5]
  GI50: 1.89 µM
  TGI: 3.9 µM
[6]
  GI50: 3.76 µM
  TGI: 16.2 µM
[7]
  GI50: 3.34 µM
  TGI: 13 µM
[8]
  GI50: 15 µM
  TGI: 31 µM

## S=C(NCc1ccc2c(c1)OCO2)N1CCN(c2ncnc3c2oc2ccccc23)CC1
[1]
  GI50: > 21.7 µM
  TGI: > 100 µM
[2]
  GI50: 14.1 µM
  TGI: > 100 µM
[3]
  GI50: > 100 µM
  TGI: > 100 µM
[4]
  GI50: > 100 µM
  TGI: > 100 µM
[5]
  GI50: 8.16 µM
  TGI: > 100 µM
[6]
  GI50: 5.43 µM
  TGI: > 100 µM
[7]
  GI50: 4.69 µM
  TGI: > 100 µM
[8]
  GI50: > 71.4 µM
  TGI: > 100 µM

## Cc1ccc(S(=O)(=O)NC(=O)OC23COCN2COC3)cc1
[1]
  TGI: > 100 µM
[2]
  TGI: > 100 µM
[3]
  TGI: > 100 µM
[4]
  TGI: > 100 µM
[5]
  TGI: > 100 µM
[6]
  TGI: > 100 µM
[7]
  TGI: > 100 µM
[8]
  TGI: > 100 µM

## CC1(C)[C@H](O)[C@H](F)C[C@@]2(C)Oc3ccc(C(=O)Nc4ccc5c(c4)NC(=O)C54CCN(CCCCC#N)CC4)cc3C[C@H]12
[1]
  GI50: 0.456 µM and 0.558 µM
  TGI: 8.32 µM and 11.4 µM
[2]
  GI50: 0.0308 µM
  TGI: 1.13 µM and 1.12 µM
[3]
  GI50: 0.332 µM and 1.04 µM
  TGI: 3.1 µM and 3.43 µM
[4]
  GI50: 1.25 µM and 1.2 µM
  TGI: 3.61 µM and 3.43 µM
[5]
  GI50: 0.09 µM and 0.0946 µM
  TGI: 1.83 µM and 2.94 µM
[6]
  GI50: 5.36 µM
  TGI: 45.1 µM
[7]
  GI50: 42.9 µM
  TGI: > 100 µM
[8]
  GI50: 0.606 µM and 1.06 µM
  TGI: 4.97 µM and 3.79 µM

## Cc1ccc(Cl)cc1-n1c(C)nc2c(cnn2-c2ccnc3c(C(F)(F)F)cccc23)c1=O
[1]
  GI50: > 100 µM
  TGI: > 100 µM
[2]
  GI50: > 100 µM
  TGI: > 100 µM
[3]
  GI50: > 100 µM
  TGI: > 100 µM
[4]
  GI50: > 100 µM
  TGI: > 100 µM
[5]
  GI50: > 100 µM
  TGI: > 100 µM
[6]
  GI50: > 100 µM
  TGI: > 100 µM
[7]
  GI50: > 100 µM
  TGI: > 100 µM

## O=[N+]([O-])c1cc(Cc2cc([N+](=O)[O-])c3cccnc3c2O)c(O)c2ncccc12
[1]
  TGI: 21.8 µM
[2]
  TGI: 27.6 µM
[3]
  TGI: 25.5 µM
[4]
  TGI: 37.4 µM
[5]
  TGI: 32.7 µM
[6]
  TGI: > 42.9 µM
[7]
  TGI: 54.1 µM
[8]
  TGI: 30.1 µM

## Cc1ccc(-n2c(-c3cc4c([nH]c5ccccc54)c(-c4cccc(O)c4)n3)n[nH]c2=S)cc1
[1]
  GI50: 2.56 µM
  TGI: 15 µM
[2]
  GI50: 0.491 µM
  TGI: 2.57 µM
[3]
  GI50: 2.57 µM
  TGI: 17.6 µM
[4]
  GI50: 0.628 µM
  TGI: 4.22 µM
[5]
  GI50: 0.649 µM
  TGI: 2.75 µM
[6]
  GI50: 0.442 µM
  TGI: 3.67 µM
[7]
  GI50: 4.14 µM
  TGI: 24.1 µM
[8]
  GI50: 1.1 µM
  TGI: 3.71 µM

## CN1C(=NCCO)NS(=O)(=O)c2ccccc21
[1]
  TGI: > 100 µM
[2]
  TGI: > 100 µM
[4]
  TGI: > 100 µM
[5]
  TGI: > 100 µM
[6]
  TGI: > 100 µM
[7]
  TGI: > 100 µM
[8]
  TGI: > 100 µM

## CCOC(=O)C(Cc1ccc(N(CCCl)CCCl)cc1)NC(=O)C(Cc1ccccc1)NC(C)=O (centres undefined)
[1]
  TGI: > 0.328 µM
[2]
  TGI: > 0.277 µM
[5]
  TGI: > 1 µM
[6]
  TGI: > 1 µM
[7]
  TGI: > 0.618 µM
[8]
  TGI: > 0.318 µM

## N#C/C(=C\c1cc2ccc(N3CCC3)cc2oc1=O)C(=O)N(CC(=O)O)CC(=O)O
[1]
  GI50: > 100 µM
  TGI: > 100 µM
[2]
  GI50: > 100 µM
  TGI: > 100 µM
[3]
  GI50: > 100 µM
  TGI: > 100 µM
[4]
  GI50: > 100 µM
  TGI: > 100 µM
[5]
  GI50: > 100 µM
  TGI: > 100 µM
[6]
  GI50: > 100 µM
  TGI: > 100 µM
[7]
  GI50: > 100 µM
  TGI: > 100 µM
[8]
  GI50: > 100 µM
  TGI: > 100 µM

## O=C(c1cc(Cc2n[nH]c(=O)c3ccccc23)ccc1F)N1CCN(C(=O)C2CC2)CC1
[1]
  GI50: 71.7 µM and 40.7 µM
  TGI: > 100 µM
[2]
  GI50: 67.9 µM and 76.2 µM
  TGI: > 100 µM
[3]
  GI50: 62.4 µM and > 100 µM
  TGI: > 100 µM
[4]
  GI50: > 100 µM
  TGI: > 100 µM
[5]
  GI50: 58 µM and 97.6 µM
  TGI: > 100 µM
[6]
  GI50: > 100 µM
  TGI: > 100 µM
[7]
  GI50: > 100 µM
  TGI: > 100 µM
[8]
  GI50: 73.3 µM and > 86 µM
  TGI: > 100 µM

## Cn1c(C(=O)c2cccc3ccccc23)nc2ccccc21
[1]
  GI50: 46.1 µM
  TGI: > 100 µM
[2]
  GI50: > 100 µM
  TGI: > 100 µM
[3]
  GI50: > 100 µM
  TGI: > 100 µM
[4]
  GI50: > 100 µM
  TGI: > 100 µM
[5]
  GI50: > 100 µM
  TGI: > 100 µM
[6]
  GI50: > 100 µM
  TGI: > 100 µM
[7]
  GI50: > 100 µM
  TGI: > 100 µM

## O=C1C(Sc2ccc3ccccc3c2)=C(Sc2ccc3ccccc3c2)C(=O)c2ccccc21
[1]
  TGI: 15.8 µM
[2]
  TGI: 14.2 µM
[4]
  TGI: 28.5 µM
[5]
  TGI: 31.5 µM
[6]
  TGI: 22.2 µM
[7]
  TGI: 44.9 µM
[8]
  TGI: 23.7 µM

## C=CCN(CC=C)C(=O)[C@H](CC)[C@@H]1CC[C@@H](C)[C@@H]([C@H](C)[C@@H](O)[C@@H](C)C(=O)[C@H](CC)C2O[C@]3(C=C[C@@H](O)[C@]4(CC[C@@](C)([C@H]5CC[C@](O)(CC)[C@H](C)O5)O4)O3)[C@H](C)C[C@@H]2C)O1 (some centres undefined)
[1]
  GI50: 2.16 µM
  TGI: 7.46 µM
[2]
  GI50: 1.66 µM
  TGI: 4.09 µM
[3]
  GI50: 1.76 µM
  TGI: 3.6 µM
[4]
  GI50: 4.45 µM
  TGI: 21.6 µM
[5]
  GI50: 2.71 µM
  TGI: 8.5 µM
[6]
  GI50: 3.48 µM
  TGI: 76.4 µM
[7]
  GI50: 2.7 µM
  TGI: 9.82 µM

## N#CC1C(N)=NNC12Nc1ccccc1S2 (centres undefined)
[1]
  GI50: 33.1 µM
  TGI: > 100 µM
[2]
  GI50: 12.2 µM
  TGI: 30.3 µM
[5]
  GI50: 13.9 µM
  TGI: 51.3 µM
[6]
  GI50: 13 µM
  TGI: 61.1 µM
[7]
  GI50: 17.7 µM
  TGI: 54.1 µM
[8]
  GI50: 15.3 µM
  TGI: 40.5 µM

## CSC1=Nc2c(c(C)c(-c3ccccc3)n2COC(CO)CO)C2=NC(=O)CN12
[1]
  GI50: > 100 µM
  TGI: > 100 µM
[2]
  GI50: > 100 µM
  TGI: > 100 µM
[3]
  GI50: > 100 µM
  TGI: > 100 µM
[4]
  GI50: > 100 µM
  TGI: > 100 µM
[5]
  GI50: > 100 µM
  TGI: > 100 µM
[6]
  GI50: > 100 µM
  TGI: > 100 µM
[7]
  GI50: > 100 µM
  TGI: > 100 µM

## COC(=O)c1cc([N+](=O)[O-])cc([N+](=O)[O-])c1Cl
[1]
  GI50: 1.86 µM
  TGI: 3.95 µM
[2]
  GI50: 1.55 µM
  TGI: 3.1 µM
[3]
  GI50: 1.95 µM
  TGI: 4.1 µM
[4]
  GI50: 1.94 µM
  TGI: 4.08 µM
[5]
  GI50: 1.89 µM
  TGI: 3.64 µM
[6]
  GI50: 2.01 µM
  TGI: 4.38 µM
[7]
  GI50: 2.8 µM
  TGI: 8.71 µM
